Experimental data: article PMC6312923 (Life Science Alliance, 2018)

B1: Cdt2^PIP-3A: Cdt2 with I709, Y712, and F713 all mutated to alanine (protein, UniProt Q9NZJ0 1-730, looked up, variant I709A Y712A F713A)
Denticleless protein homolog: MLFNSVLRQPQLGVLRNGWSSQYPLQSLLTGYQCSGNDEHTSYGETGVPVPPFGCTFSSAPNMEHVLAVANEEGFVRLYNTESQSFRKKCFKEWMAHWNAVFDLAWVPGELKLVTAAGDQTAKFWDVKAGELIGTCKGHQCSLKSVAFSKFEKAVFCTGGRDGNIMVWDTRCNKKDGFYRQVNQISGAHNTSDKQTPSKPKKKQNSKGLAPSVDFQQSVTVVLFQDENTLVSAGAVDGIIKVWDLRKNYTAYRQEPIASKSFLYPGSSTRKLGYSSLILDSTGSTLFANCTDDNIYMFNMTGLKTSPVAIFNGHQNSTFYVKSSLSPDDQFLVSGSSDEAAYIWKVSTPWQPPTVLLGHSQEVTSVCWCPSDFTKIATCSDDNTLKIWRLNRGLEEKPGGDKLSTVGWASQKKKESRPGLVTVTSSQSTPAKAPRAKCNPSNSSPSSAACAPSCAGDLPLPSNTPTFSIKTSPAKARSPINRRGSVSSVSPKPPSSFKMSIRNWVTRTPSSSPPITPPASETKIMSPRKALIPVSQKSSQAEACSESRNRVKRRLDSSCLESVKQKCVKSCNCVTELDGQVENLHLDLCCLAGNQEDLSKDSLGPTKSSKIEGAGTSISEPPSPISPYASESCGTLPLPLRPCGEGSEMVGKENSSPENKNWLLAMAAKRKAENPSPRSPSSQTPNSRRQSGKKLPSPVTITPSSMRKACTAAHRKSQEDFCGPEHSTEL
modifications: FLAG tag
notes: Cdt2 with I709, Y712, and F713 all mutated to alanine

How the values were obtained:
Format in all cases: cell-based, human
[1] = system: UV-C–damaged sites in MCF7 cells; experiment: FRAP of GFP-tagged proteins at sites of local UV-C damage in MCF7 cells
Protocol: (C) MCF7 cells were transfected with the indicated GFP-tagged plasmids and 24 h later they were locally UV-C irradiated (50 J/m^2). 20 min following irradiation, FRAP experiments were conducted at the site of damage and in untreated cells (Fig S1). FRAP data were analysed with easyFRAP. Mean normalized fluorescence intensities at the site of damage as a function of time following photobleaching are shown. (D) MCF7 cells were synchronized in the S phase by treatment with 2-mM thymidine for 24 h. Upon release, cells were transfected with siCdt1 or control siLuc in parallel with a plasmid expressing GFP-tagged Cdt2. Cells were then synchronised in the M phase by treatment with 50 ng/ml nocodazole for 12 h, released into G1 for 5 h, and locally UV-C irradiated (50 J/m^2). 20 min after irradiation, the cells were analysed by FRAP. Mean normalized fluorescence recovery curves at the sites of damage are shown.
To perform micropore UV irradiation, cells were cultured on cover slips, washed twice with PBS, and subsequently covered with an isopore polycarbonate membrane filter (Millipore) with a pore size of either 3 or 5 μm in diameter, and irradiated. UV irradiation was achieved using a UV lamp (SUV-16, As One, Japan) with a dose rate of 0.4 J/m^2·s, which was monitored with a UV radiometer (UVX Radiometer, UVP) at 254 nm, or with a UV box equipped with a UV-C lamp monitored with a VLX-3W radiometer (Vilber Lourmat) at 254 nm (CX-254 sensor). The filter was removed and cells were either fixed or cultured for the indicated time before fixation, and processed for immunofluorescence. For FRAP analysis, cells were cultured for 20 min to allow recruitment to sites of damage before photobleaching.
Cells (HeLa or MCF7) were plated on 35-mm glass-bottom dishes in phenol-red–free medium (Invitrogen). […] A Leica TCS SP5 microscope equipped with a 63x magnification 1.4 NA oil-immersion lens and FRAP booster were used. During FRAP, cells were maintained at 37°C and 5% CO2. A defined circular region of interest with 2 μm diameter (ROI1) was placed in the nucleus and at the recruitment sites. GFP was excited using a 488-nm argon laser line. 50 pre-bleach images were acquired with 3% of the 488-nm line at 60% argon laser intensity, followed by a single bleach pulse on ROI1 using 476-nm and 488-nm laser lines combined at maximum power. In this manner, at least 60% of the fluorescence in ROI1 was bleached successfully. Next, 400 post-bleach images with a 0.052 s interval were recorded. Mean intensities of ROI1, the whole nucleus (ROI2) and an area outside of the nucleus (ROI3) were quantified and exported as .csv format files.

[2] = system: chromatin-containing fraction, HEK293 cells; experiment: Chromatin fractionation of Cdt2; conditions: stable HEK293, Western blot
Protocol: (§1) Figure 6. The Cdt2 PIP box is important for its recruitment to DNA damage sites and replication foci and for poly-ubiquitination activity. (A) HEK293 and stable Cdt2^WT or Cdt2^PIP-3A cells were locally UV irradiated, and stained for XPA and FLAG (Cdt2). XPA-positive spots were examined for FLAG signal, and its frequency was counted (%). More than 50 spots were examined. bar:10 μm. […] Bar: 10 μm. […] (D) Whole-cell extracts were prepared from HEK293 and stably transfected cells of Cdt2^WT or Cdt2^PIP-3A cells, separated into soluble (Sup) and chromatin-containing insoluble (Ppt) fractions, and were examined for indicated proteins. The asterisk indicates nonspecific bands. (E) HEK293 and stably transfected cells of Cdt2^WT or Cdt2^PIP-3A were treated with MG132 for 3 h. Whole-cell extracts (WCE) were prepared, separated into soluble (Sup) and insoluble (Ppt) fractions, and blotted with the indicated antibodies.
Cell extracts were prepared using 0.1% Triton X-100–containing mCSK buffer (200 μg of total protein in 400–800 μl). After centrifugation (17,900g for 10 min at 4°C), soluble and chromatin-containing pellet fractions were obtained. The pellets were washed with ice-cold 0.1% Triton X-100–containing mCSK buffer and subsequently suspended in SDS sample buffer.

Cdt1 poly-ubiquitination = experiment: Poly-ubiquitination of Cdt1 in HEK293 cells; conditions: for poly-ubiquitinated Cdt1 level: HEK293, MG132 3 h, asynchronous; for poly-ubiquitination of Cdt1 after UV: HEK293, endogenous Cdt2 depleted (siCdt2), MG132 25 μM, UV 20 J/m^2
Protocol: as §1
Figure S6. Cdt2 PIP box is important for its recruiting to DNA replication sites and its poly-ubiquitination activity in HEK293 cells. […] (B) Poly-ubiquitination after UV irradiation. HEK293 and its stables expressing Cdt2^WT or Cdt2^PIP-3A were transfected with siCdt2 or control (siLuc). Three days later, cells were treated with MG132 (25 μM), and 10 min later irradiated with UV (20 J/m^2). Cells were collected at the indicated time points, and used for Western blotting with indicated antibodies.
(§2) To consider this possibility, asynchronously growing control HEK293 cells and cells expressing Cdt2^WT or Cdt2^PIP-3A were treated with proteasome inhibitor MG132 and the levels of poly-ubiquitinated Cdt1 were examined. […] Cdt2^PIP-3A-expressing cells however had reduced level of both poly-ubiquitinated Cdt1 and p21 on chromatin.
Next, we examined the accumulation of poly-ubiquitinated Cdt1 after UV irradiation. For this experiment, the endogenous Cdt2 was depleted with an siRNA targeted to the 3′ UTR to assay for the activity of introduced Cdt2. Cells were treated with MG132, irradiated with UV and the levels of poly-ubiquitinated Cdt1 were monitored by Western blotting. In HEK293 cells treated with control siRNA, poly-ubiquitinated Cdt1 was detected 15 min after irradiation (Fig S6B). […] The defect was rescued by Cdt2^WT expression.

[3] = system: Cdt1 and p21 poly-ubiquitination; experiment: Poly-ubiquitination of Cdt1 and p21 in U2OS cells; conditions: U2OS stable cells, MG132 3 h
Protocol: as §2
Figure S7. Cdt2 PIP box is important for CRL4^Cdt2 activity in U2OS cells. (A) U2OS stable cells expressing Cdt2^WT or Cdt2^PIP-3A. U2OS cells were transfected with expression vectors for Cdt2^WT-FLAG or Cdt2^PIP-3A-FLAG, and isolated stable clones were verified by immunofluorescent analysis and Western blot analysis. Frequency of expressing cells for each construct was shown (%). (B) Poly-ubiquitination assay with U2OS stable cells. U2OS cells and Cdt2^WT-3FLAG or Cdt2^PIP-3A-3FLAG expressing stable U2OS cells were treated with MG132 for 3 h or not (−), and whole-cell extracts were prepared for Western blotting. (C) Cells were transfected with siCdt2 or control siLuc for 72 h, irradiated with UV (+, 5 J/m^2) or not (−), and collected 1h later for Western blotting. Relative levels of Cdt1 were shown, UV (−) level set as 1.0 (average of two independent experiments).

[4] = system: Cdt1 degradation, U2OS cells; experiment: Cdt1 degradation after UV irradiation in U2OS cells; conditions: for Cdt1 degradation after UV: siCdt2 (3′ UTR), UV 20 J/m^2
Description: Because the poly-ubiquitination activity of Cdt2^PIP-3A was reduced, we monitored the degradation of Cdt1 after UV irradiation. Asynchronously growing control U2OS cells and cells expressing Cdt2^WT or Cdt2^PIP-3A (Fig S7) were depleted of endogenous Cdt2 using an siRNA targeted to the 3′ UTR, and irradiated with UV.
Figure 7. The Cdt2 PIP box plays an important role for rapid Cdt1 degradation after UV irradiation. (A) U2OS cells and U2OS cells stably expressing Cdt2^WT-3FLAG or Cdt2^PIP-3A-3FLAG were transfected with siCdt2 targeted to the 3′ UTR or control siLuc for 48 h, irradiated with UV (+, 20 J/m^2) or not (−), and collected at the indicated time points (min) for Western blotting. (B) The protein levels were measured and the relative amounts of Cdt1, normalized to RCC1, after UV irradiation were shown, UV (−) level set as 1.0. Error bars represent SD from three independent experiments. (C) Cells were transfected with siCdt2 or control siLuc for 72 h, irradiated with UV (+, 5 J/m^2) or not (−) (not shown), and 1h later fixed for staining with Cdt1 and cyclinA antibodies. (D) The frequency of Cdt1-positive (+) cells among the total cells in (C) was shown (%) (average of two independent experiments).
Double-stranded RNAs were transfected at 100 nM using Oligofectamine (Invitrogen) or HiPerFect (QIAGEN). Twenty-four hours after the first transfection, a second transfection was performed and cells were cultured for two more days. The following siRNAs were made by Dharmacon: Skp2; […], Cdt2_3′UTR; […]. The siRNA for siLuc, known as GL2, was used as a control siRNA. For Cdt1 silencing in Fig 1A and B, unsychronized HeLa cells were transfected twice with 200 nM of Cdt1 siRNA or control luciferase siRNA using Lipofectamine 2000 with a time interval of 24 h and were analysed 48 h after the second transfection. In synchronized MCF7 cells (Fig 1D), a single transfection with 200 nM of Cdt1 siRNA or control luciferase siRNA using Lipofectamine 2000 5 h after release from thymidine and before adding nocodazole was carried out. The Cdt1 siRNA was made by MWG: […].

Cdt2 poly-ubiquitination = experiment: Poly-ubiquitination of Cdt2 itself on chromatin in HEK293 cells; conditions: HEK293, MG132 3 h
Protocol: as §1, §2

[5] = GFP-tagged, site of UV-C damage (50 J/m^2), 20 min after irradiation

| Molecule | half-recovery time [1, 5] [s] | immobile fraction [1, 5] [%] | FRAP binding kinetics at damage sites after Cdt1 depletion ([1]; MCF7 synchronized in G1, siCdt1 versus siLuc, Fig 1D) | recovery in chromatin-containing fraction [2] | poly-ubiquitinated Cdt1 level (Cdt1 poly-ubiquitination) | poly-ubiquitination of Cdt1 after UV (Cdt1 poly-ubiquitination) | poly-ubiquitination of Cdt1 and p21 [3] | Cdt1 degradation after UV [4] | poly-ubiquitination of Cdt2 on chromatin (Cdt2 poly-ubiquitination) | Cdt1 stability after low-dose UV ([4]; siCdt2, UV 5 J/m^2, 1 h post UV) |
| --- | --- | --- | --- | --- | --- | --- | --- | --- | --- | --- |
| Cdt2: Cdt2 tagged with GFP, transiently expressed in MCF7 cells | 0.83 | 16 | remain the same despite the absence of Cdt1 | recovered in a chromatin-containing fraction | clearly detected | rescued | Increased levels | restored Cdt1 degradation to similar kinetics to that of control siRNA-transfected U2OS cells |  |  |
| B1 |  |  |  | undetectable | reduced | defective in poly-ubiquitination of Cdt1 |  | much less effective in rescuing Cdt2 depletion | severely reduced | Cdt1 remained stable 1 h post UV irradiation |
